From patent US20250326743A1, “CRYSTAL FORMS OF TRIAZINE DIONE DERIVATIVE AND PREPARATION METHOD THEREFOR” (Jiangsu Hengrui Pharmaceuticals Co., Ltd., priority 2022, published 2025)

Experiments:
Type in all cases: physicochemical
[1] = DVS (dynamic vapor sorption) hygroscopicity; conditions: for hygroscopic weight gain: DVS
Method: DVS refers to dynamic vapor sorption: The measurement was performed using SMS DVS Advantage; at 25° C., the humidity was changed as follows: 50%-95%-0%-95%-50%, in steps of 10% (5% for the last step) (specific humidity ranges are shown in corresponding patterns, and those listed here were used in most cases); the criterion was dm/dt being not greater than 0.002%.

[2] = Long-term/accelerated stability study (6 months); conditions: for physical and chemical stability (conclusion): 25° C. with 60% RH and 40° C. with 75% RH
[3] = Influencing factor stability study (30 days, open flasks); conditions: for physical and chemical stability (conclusion): light exposure, 40° C. and 60° C., 75% RH and 92.5% RH
[4] = normal storage conditions, 60% RH
[5] = Light exposure (4500 Lux), 5 days
[6] = Light exposure (4500 Lux), 10 days
[7] = Light exposure (4500 Lux), 30 days

## Cc1ccc(F)c([C@H](C)Nc2nc(=O)n(C3CCOCC3)c(=O)[nH]2)c1 [crystal form A, (S)-6-((1-(2-fluoro-5-methylphenyl)ethyl)amino)-3-(tetrahydro-2H-pyran-4-yl)-1,3,5-triazine-2,4(1H,3H)-dione]
[1]; accelerated conditions, 70% RH
  hygroscopic weight gain: about 0.15%
[1]; extreme conditions, 90% RH
  hygroscopic weight gain: about 0.24%
[1]; [4]
  hygroscopic weight gain: about 0.12%
[1]
  crystal form after DVS testing: did not change
[2]; 6 months
  physical and chemical stability (conclusion): both good physical stability and good chemical stability
[2]; 25° C./60% RH, 1 month
  Crystal form: No change
  Purity %: 99.7%
[2]; 25° C./60% RH, 2 months
  Crystal form: No change
  Purity %: 99.7%
[2]; 25° C./60% RH, 3 months
  Crystal form: No change
  Purity %: 99.7%
[2]; 25° C./60% RH, 6 months
  Crystal form: No change
  Purity %: 99.7%
[2]; 40° C./75% RH, 1 month
  Crystal form: No change
  Purity %: 99.7%
[2]; 40° C./75% RH, 2 months
  Crystal form: No change
  Purity %: 99.7%
[2]; 40° C./75% RH, 3 months
  Crystal form: No change
  Purity %: 99.7%
[2]; 40° C./75% RH, 6 months
  Crystal form: No change
  Purity %: 99.8%
[2]; Initial
  Purity %: 99.7%
[3]; 40° C., 5 days
  Color and state: Off-white solid
  Crystal form: No change
  Purity %: 99.7%
[3]; 40° C., 10 days
  Color and state: Off-white solid
  Crystal form: No change
  Purity %: 99.7%
[3]; 40° C., 30 days
  Color and state: Off-white solid
  Crystal form: No change
  Purity %: 99.7%
[3]; 60° C., 5 days
  Color and state: Off-white solid
  Crystal form: No change
  Purity %: 99.7%
[3]; 60° C., 10 days
  Color and state: Off-white solid
  Crystal form: No change
  Purity %: 99.7%
[3]; 60° C., 30 days
  Color and state: Off-white solid
  Crystal form: No change
  Purity %: 99.7%
[3]; 75% RH, 5 days
  Color and state: Off-white solid
  Crystal form: No change
  Purity %: 99.7%
[3]; 75% RH, 10 days
  Color and state: Off-white solid
  Crystal form: No change
  Purity %: 99.7%
[3]; 75% RH, 30 days
  Color and state: Off-white solid
  Crystal form: No change
  Purity %: 99.7%
[3]; 92.5% RH, 5 days
  Color and state: Off-white solid
  Crystal form: No change
  Purity %: 99.7%
[3]; 92.5% RH, 10 days
  Color and state: Off-white solid
  Crystal form: No change
  Purity %: 99.7%
[3]; 92.5% RH, 30 days
  Color and state: Off-white solid
  Crystal form: No change
  Purity %: 99.7%
[3]; Initial, 0 days
  Color and state: Off-white solid
  Purity %: 99.7%
[3]; [5]
  Color and state: Off-white solid
  Crystal form: No change
  Purity %: 99.7%
[3]; [6]
  Color and state: Off-white solid
  Crystal form: No change
  Purity %: 99.7%
[3]; [7]
  Color and state: Off-white solid
  Crystal form: No change
  Purity %: 99.7%
[3]; 30 days
  physical and chemical stability (conclusion): both good physical stability and good chemical stability

## Cc1ccc(F)c([C@H](C)Nc2nc(=O)n(C3CCOCC3)c(=O)[nH]2)c1 [crystal form B, (S)-6-((1-(2-fluoro-5-methylphenyl)ethyl)amino)-3-(tetrahydro-2H-pyran-4-yl)-1,3,5-triazine-2,4(1H,3H)-dione]
[1]; accelerated conditions, 70% RH
  hygroscopic weight gain: about 0.298%
[1]; extreme conditions, 90% RH
  hygroscopic weight gain: about 0.418%
[1]; [4]
  hygroscopic weight gain: about 0.242%
[1]
  crystal form after DVS testing: did not change
[2]; 6 months
  physical and chemical stability (conclusion): both good physical stability and good chemical stability
[2]; 25° C./60% RH, 1 month
  Crystal form: No change
  Purity %: 99.8%
[2]; 25° C./60% RH, 2 months
  Crystal form: No change
  Purity %: 99.8%
[2]; 25° C./60% RH, 3 months
  Crystal form: No change
  Purity %: 99.9%
[2]; 25° C./60% RH, 6 months
  Crystal form: No change
  Purity %: 99.9%
[2]; 40° C./75% RH, 1 month
  Crystal form: No change
  Purity %: 99.9%
[2]; 40° C./75% RH, 2 months
  Crystal form: No change
  Purity %: 99.9%
[2]; 40° C./75% RH, 3 months
  Crystal form: No change
  Purity %: 99.9%
[2]; 40° C./75% RH, 6 months
  Crystal form: No change
  Purity %: 99.9%
[2]; Initial
  Purity %: 99.9%
[3]; 40° C., 5 days
  Color and state: Off-white solid
  Crystal form: No change
  Purity %: 99.8%
[3]; 40° C., 10 days
  Color and state: Off-white solid
  Crystal form: No change
  Purity %: 99.9%
[3]; 40° C., 30 days
  Color and state: Off-white solid
  Crystal form: No change
  Purity %: 99.9%
[3]; 60° C., 5 days
  Color and state: Off-white solid
  Crystal form: No change
  Purity %: 99.9%
[3]; 60° C., 10 days
  Color and state: Off-white solid
  Crystal form: No change
  Purity %: 99.9%
[3]; 60° C., 30 days
  Color and state: Off-white solid
  Crystal form: No change
  Purity %: 99.9%
[3]; 75% RH, 5 days
  Color and state: Off-white solid
  Crystal form: No change
  Purity %: 99.8%
[3]; 75% RH, 10 days
  Color and state: Off-white solid
  Crystal form: No change
  Purity %: 99.8%
[3]; 75% RH, 30 days
  Color and state: Off-white solid
  Crystal form: No change
  Purity %: 99.8%
[3]; 92.5% RH, 5 days
  Color and state: Off-white solid
  Crystal form: No change
  Purity %: 99.9%
[3]; 92.5% RH, 10 days
  Color and state: Off-white solid
  Crystal form: No change
  Purity %: 99.9%
[3]; 92.5% RH, 30 days
  Color and state: Off-white solid
  Crystal form: No change
  Purity %: 99.9%
[3]; Initial, 0 days
  Color and state: Off-white solid
  Purity %: 99.9%
[3]; [5]
  Color and state: Off-white solid
  Crystal form: No change
  Purity %: 99.9%
[3]; [6]
  Color and state: Off-white solid
  Crystal form: No change
  Purity %: 99.9%
[3]; [7]
  Color and state: Off-white solid
  Crystal form: No change
  Purity %: 99.9%
[3]; 30 days
  physical and chemical stability (conclusion): both good physical stability and good chemical stability
